According to patent US20240034729A9, “HETEROCYCLIC COMPOUND, INTERMEDIATE, PREPARATION METHOD THEREFOR AND APPLICATION THEREOF” (WUHAN LL SCIENCE AND TECHNOLOGY DEVELOPMENT CO., LTD., priority 2018, published 2024):
Like-named read-outs stand apart in the source and are kept apart here.

Legend:
[1] = In vitro metabolic stability, rat liver microsome; assay type: in vitro ADME; details: liver microsomes, 1 mg/mL liver microsome protein, 37° C., NA = essentially not metabolized, read-out: T1/2 in rat liver microsome
Experimental: (§1) The in vitro metabolic stability of the compounds disclosed herein was determined through incubation of liver microsomes of various species. […] At each time point, 100 μL of the reaction mixture was added into a centrifuge tube containing 400 μL of internal standard working solution (containing a 200 ng/mL solution of dexamethasone, diclofenac, tolbutamide and labetalol in acetonitrile) precooled at 0° C. so as to terminate the reaction, and the mixture was then centrifuged at 10,000 g for 10 min at 4° C. The supernatant was collected for LC-MS assay so as to obtain the values of in vitro metabolic half-life of the test compounds in liver microsomes of various species.

[2] = In vitro metabolic stability, guinea pig liver microsome; assay type: in vitro ADME; details: liver microsomes, 1 mg/mL liver microsome protein, 37° C., NA = essentially not metabolized, read-out: T1/2 in guinea pig liver microsome
Experimental: The in vitro metabolic stability of the compounds disclosed herein was determined through incubation of liver microsomes of various species. A proper amount of test compound was added into a liver microsome reaction system (1 mg/mL liver microsome protein, 25 U/mL glucose-6 phosphate dehydrogenase, 1 mM NADP, 6 mM D-glucose 6-phosphate and 5 mM MgCl2), and then the mixture was incubated in a water bath kettle at 37° C. to start the reaction. At each time point, 100 μL of the reaction mixture was added into a centrifuge tube containing 400 μL of internal standard working solution (containing a 200 ng/mL solution of dexamethasone, diclofenac, tolbutamide and labetalol in acetonitrile) precooled at 0° C. so as to terminate the reaction, and the mixture was then centrifuged at 10,000 g for 10 min at 4° C. The supernatant was collected for LC-MS assay so as to obtain the values of in vitro metabolic half-life of the test compounds in liver microsomes of various species.

[3] = In vitro metabolic stability, human liver microsome; assay type: in vitro ADME; details: liver microsomes, 1 mg/mL liver microsome protein, 37° C., NA = essentially not metabolized, read-out: T1/2 in human liver microsome
Experimental: as §1

[4] = target: hP2X3 (human purinergic P2X receptor subtype 3) (Homo sapiens (Human), UniProt P56373); assay: FLIPR calcium assay, hP2X3 expressed in HEK293 cells; assay type: cell-based; details: read-out: P2X3 IC50
[5] = system: Male Dunkin Hartley guinea pigs; assay: Citric acid only cough model; assay type: in vivo, guinea pig; parameters: Mean cough latency: unit not given beside the values; details: for Number of coughs and cough latency (in words): compared with the blank vehicle or the condition before administration; for inhibition in vivo at 30 mg/kg: Cavia porcellus; for Mean number of coughs: 17.5% citric acid
Experimental: Male Dunkin Hartley guinea pigs (300-350 g) were placed in an animal atomization box, and then the door of the atomization box was closed while the ultrasonic atomizer (Guangdong Yuehua) was turned on. 17.5% citric acid gas was introduced into the atomization box at a maximum atomization rate (about 2 mL/min) for 20 s, and coughs of the animals within 10 min were continuously observed from the time of the start of atomization. During the 10-min observation, coughs of the animals were counted manually, and the number of coughs were judged according to cough postures of the guinea pigs, such as abdominal twitching, mouth opening, and head inclining downward abruptly. The number of coughs during the first 5 min and that during 10 min were recorded, and the cough latency of the guinea pigs, namely the time from the initiation of citric acid induction to the appearance of the first cough, was also recorded.

[6] = In vitro cytotoxicity assay, CCK-8 method; assay type: cell-based; details: human, HepG2 cells
Experimental: In vitro cytotoxicity assay for the compounds disclosed herein was performed in HepG2 cells using the CCK-8 method. HepG2 cells (Beina Bio) in the logarithmic growth phase were collected, the concentration of cell suspension was adjusted, and then the cells were plated on a 96-well cell culture plate at 50,000 cells/well. The cells were then incubated overnight in a cell incubator of 5% […] at 37° C., and after 80-90% cell confluence was achieved, test compounds or vehicle (DMSO) at various concentration gradients were added after medium change. The plate was incubated in a cell incubator of 5% […] at 37° C. for 48 h. After the treatment, the medium in the plate was discarded. The plate was washed twice with PBS, added with CCK-8 working solution (Beyotime) at 100 μL per well, and then incubated at 37° C. for 1.5 h away from light. Absorbance at OD450nm was measured for each well on a microplate reader, and CC50 value of each compound was analyzed and calculated.

[7] = target: hP2X2/3 (heterodimeric receptors formed by human purinergic P2X receptors subtype 2 and subtype 3) (Homo sapiens (Human), UniProt P56373+Q9UBL9); assay: FLIPR calcium assay, hP2X2/3 expressed in HEK293 cells (P2X2/3 receptor selectivity); assay type: cell-based; details: for IC50: HEK293 cells expressing hP2X2/3, agonist BZ-ATP 5 μM, unit inferred
Male SD rats = assay: Two-bottle dysgeusia test (quinine water vs normal water); assay type: in vivo, rat; details: for Ratio of quinine/water intake (in words): compared with the blank vehicle; for Quinine/tap water* 100%: rats, single intraperitoneal injection
Experimental: All drinking water bottles were removed out 20 h before the start of the formal experiment, and all the animals were deprived of water until the start of the experiment. In the experiment, all the animals were randomly grouped and then subjected to a single intraperitoneal injection of a test compound or a vehicle before water was resupplied. The administration time was determined according to the Tmax of the test compound. Then the animals were placed in separate cages, and two bottles of drinking water (one bottle of normal drinking water and one bottle of 0.3 mM quinine water) were provided.

[8] = 30 mg/kg, read-out: Cough inhibition rate Vs Baseline (%)
[9] = 30 mg/kg, read-out: Cough inhibition rate Vs Vehicle (%)
[10] = Table 8, 20 mg/kg, water intake within 15 min, 0.3 mM quinine
[11] = before administration (baseline of the group)

Sequence of hP2X3 (human purinergic P2X receptor subtype 3) (P56373 whole entry): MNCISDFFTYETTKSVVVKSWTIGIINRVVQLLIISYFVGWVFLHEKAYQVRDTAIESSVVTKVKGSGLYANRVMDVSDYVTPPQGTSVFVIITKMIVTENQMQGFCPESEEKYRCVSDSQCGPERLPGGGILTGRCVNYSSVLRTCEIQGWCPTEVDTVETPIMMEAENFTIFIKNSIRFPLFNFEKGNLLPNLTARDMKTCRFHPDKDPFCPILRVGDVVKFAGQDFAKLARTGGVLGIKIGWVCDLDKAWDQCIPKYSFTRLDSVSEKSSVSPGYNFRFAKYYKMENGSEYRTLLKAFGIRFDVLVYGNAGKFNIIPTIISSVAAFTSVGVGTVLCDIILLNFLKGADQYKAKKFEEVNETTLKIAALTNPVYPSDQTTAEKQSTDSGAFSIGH
Sequence of hP2X2/3 (heterodimeric receptors formed by human purinergic P2X receptors subtype 2 and subtype 3) (P56373 whole entry): as above
Sequence of hP2X2/3 (heterodimeric receptors formed by human purinergic P2X receptors subtype 2 and subtype 3) (Q9UBL9 whole entry): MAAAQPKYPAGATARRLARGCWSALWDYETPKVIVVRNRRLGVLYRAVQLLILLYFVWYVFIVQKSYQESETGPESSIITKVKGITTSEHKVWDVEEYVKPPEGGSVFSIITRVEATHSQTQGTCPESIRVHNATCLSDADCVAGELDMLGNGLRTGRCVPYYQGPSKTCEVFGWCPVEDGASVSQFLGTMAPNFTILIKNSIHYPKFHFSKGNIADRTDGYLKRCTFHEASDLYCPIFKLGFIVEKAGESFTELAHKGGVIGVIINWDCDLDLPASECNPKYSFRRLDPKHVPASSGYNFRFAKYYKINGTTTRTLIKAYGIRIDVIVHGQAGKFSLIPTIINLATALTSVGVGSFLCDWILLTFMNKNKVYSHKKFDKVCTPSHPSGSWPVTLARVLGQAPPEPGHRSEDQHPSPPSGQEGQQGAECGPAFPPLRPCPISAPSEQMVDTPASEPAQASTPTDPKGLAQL

| Quinine/tap water* 100% (Male SD rats; Table 9, 10 mg/kg) [%] | Quinine/tap water* 100% (Male SD rats; Table 9, 20 mg/kg) [%] | Compound | half-life [1] [h] | half-life [2] [h] | half-life [3] [h] | IC50 [4] [µM] | Number of coughs and cough latency (in words) ([5]; 30 mg/kg) | inhibition in vivo at 30 mg/kg [5, 8] [%] | inhibition in vivo at 30 mg/kg [5, 9] [%] | CC50 at 48 h [6] [µM] | Folds of selectivity [7] | IC50 [7] [µM] | Ratio of quinine/water intake (in words) (Male SD rats; 20 mg/kg) | Quinine/tap water* 100% (Male SD rats; [10]) [%] | Cough inhibition rate Vs Baseline (%) ([5]; 30 mg/kg) | Cough inhibition rate Vs Vehicle (%) ([5]; 30 mg/kg) | Mean cough latency ([5]; after administration, 30 mg/kg) | Mean number of coughs ([5]; after administration, 30 mg/kg) | Mean cough latency [5, 11] | Mean number of coughs [5, 11] |
| --- | --- | --- | --- | --- | --- | --- | --- | --- | --- | --- | --- | --- | --- | --- | --- | --- | --- | --- | --- | --- |
|  |  | COC(=O)N1CCO[C@@H](Cc2c(-c3c(F)cc(NC(C)=O)cc3F)nc3cc(C)ccn23)C1 [Compound 2, methyl (S)-2-((2-(2,6-difluoro-4-acetamidophenyl)-7-methylimidazo[1,2-a]pyridin-3-yl)-methyl)morpholine-4-carboxylate] | 0.872 | 1.59 | 14.9 | < 0.01 | can effectively reduce the number of coughs and prolong the cough latency | 38.7 | 34.2 | 124 | A (key: A: folds of selectivity >1000; B: 200< folds of selectivity ≤1000; C: folds of selectivity ≤200) | > 60 | almost unaffected | 5.49 |  |  |  |  |  |  |
|  |  | COC(=O)N1CCO[C@@H](Cc2c(-c3c(F)cc(-c4ncc[nH]4)cc3F)nc3cc(C)ccn23)C1 [Compound 7, methyl (S)-2-((2-(2,6-difluoro-4-(1H-imidazol-2-yl)phenyl)-7-methylimidazo[1,2-a]pyridin-3-yl)methyl)morpholine-4-carboxylate] | 0.326 | 0.348 | 2.13 | < 0.01 | can effectively reduce the number of coughs and prolong the cough latency | 42.6 | 38.3 | 195 | A (key: A: folds of selectivity >1000; B: 200< folds of selectivity ≤1000; C: folds of selectivity ≤200) | > 60 | almost unaffected | 6.91 |  |  |  |  |  |  |
|  |  | CNC(=O)c1cc(F)c(-c2oc3cc(C)ccc3c2C[C@H]2CN(C(=O)OC)CCO2)c(F)c1 [Compound 53, methyl (S)-2-((2-(2,6-difluoro-4-(methylcarbamoyl)phenyl)-6-methylbenzofuran-3-yl)methyl)morpholine-4-carboxylate] |  |  |  | < 0.01 | can effectively reduce the number of coughs and prolong the cough latency | 51.7 | 47.7 |  |  |  | almost unaffected | 7.65 |  |  |  |  |  |  |
|  |  | COC(=O)N1CCO[C@@H](Cc2c(-c3c(F)cc(N)cc3F)nc3cc(Cl)ccn23)C1 [Compound 161, methyl (S)-2-((2-(4-amino-2,6-difluorophenyl)-7-chloroimidazo[1,2-a]pyridin-3-yl)methyl)morpholine-4-carboxylate] |  |  |  | 0.01 to 0.05 | can effectively reduce the number of coughs and prolong the cough latency | 66.2 | 63.5 | > 100 | A (key: A: folds of selectivity >1000; B: 200< folds of selectivity ≤1000; C: folds of selectivity ≤200) | > 60 | almost unaffected | 5.03 |  |  |  |  |  |  |
|  |  | CC(=O)N1CCO[C@@H](Cc2c(-c3c(F)cc(-n4ccnc4)cc3F)nc3cc(C)ccn23)C1 [Compound 162, (S)-1-(2-((2-(2,6-difluoro-4-(1H-imidazol-1-yl)phenyl)-7-methylimidazo[1,2-a]pyridin-3-yl)methyl)morpholino)ethan-1-one] |  |  |  | < 0.01 | can effectively reduce the number of coughs and prolong the cough latency | 46.1 | 42.8 | > 100 | A (key: A: folds of selectivity >1000; B: 200< folds of selectivity ≤1000; C: folds of selectivity ≤200) | > 60 | almost unaffected | 6.34 |  |  |  |  |  |  |
|  |  | CCC(=O)c1ccn(-c2cc(F)c(-c3nc4cc(C)ccn4c3C[C@H]3CN(C(=O)OC)CCO3)c(F)c2)n1 [Compound 164, methyl (S)-2-((2-(2,6-difluoro-4-(3-propionyl-1H-pyrazol-1-yl)phenyl)-7-methylimidazo[1,2-a]pyridin-3-yl)methyl) morpholine-4-carboxylate] |  |  |  |  |  | 67.2 | 65.2 | > 100 | A (key: A: folds of selectivity >1000; B: 200< folds of selectivity ≤1000; C: folds of selectivity ≤200) | > 60 | almost unaffected | 6.69 |  |  |  |  |  |  |
|  |  | CC(=O)N1CCO[C@@H](Cc2c(-c3c(F)cc(-c4nnc[nH]4)cc3F)nc3cc(C)ccn23)C1 [Compound 165] |  |  |  | < 0.01 | can effectively reduce the number of coughs and prolong the cough latency | 54.5 | 53.6 | > 100 | A (key: A: folds of selectivity >1000; B: 200< folds of selectivity ≤1000; C: folds of selectivity ≤200) | > 60 | almost unaffected | 3.90 |  |  |  |  |  |  |
|  |  | CNC(=O)c1cc(F)c(-c2nc3cc(C)ccn3c2C[C@H]2CN(C(=O)OC)CCO2)c(F)c1 [Positive compound 1, methyl (S)-2-((2-(2,6-difluoro-4-(4-methylcarbamoyl)phenyl)-7-methylimidazo[1,2-a]pyridin-3-yl)methyl)morpholine-4-carboxylate, reference compound] | 0.89 | 1.87 | 24.2 |  |  |  |  | 128 | >5217 |  |  |  | 47.0 | 42.6 | 226.75 | 9.88 | 80.13 | 18.63 |
| 18.62 | 34.99 | COc1cc(C(C)C)c(Oc2cnc(N)nc2N)cc1S(N)(=O)=O [Positive compound 2, reference compound] | 18.2 | 14.9 |  |  |  |  |  | > 200 |  |  |  | 59.41 |  |  |  |  |  |  |
